Source: patent US20260041744A1, “Methods for Treating Pompe Disease” (Amicus Therapeutics, Inc., priority 2022, published 2026)

Tests used:
[1] = test system: Gaa KO mice; assay: Tissue glycogen content in Gaa KO mice (amyloglucosidase digestion); format: in vivo, mouse; conditions: 20 mg/kg ATB200 IV + 10 mg/kg miglustat PO, 6 biweekly administrations
Description: The therapeutic effects of ATB200 and miglustat were evaluated and compared against those of Alglucosidase alfa in Gaa KO mice. For the study, male Gaa KO (3-to 4-month old) and age-matched wild-type (WT) mice were used. Alglucosidase alfa was administered via bolus tail vein intravenous (IV) injection. In the co-administration regimen, miglustat was administered via oral gavage (PO) 30 minutes prior to the IV injection of ATB200. Treatment was given biweekly. Treated mice were sacrificed after 14 days from the last administration and various tissues were collected for further analysis. Table 11 summarizes the study design:
Tissue glycogen content in tissues samples was determined using amyloglucosidase digestion, as discussed above.

[2] = test system: Pompe disease patients; assay: Cross-study comparison of long-term effects on 6MWD and FVC (Example 12); format: in vivo, human; conditions: ERT-experienced patients
Source text: FIG. 53A-FIG. 53B show the 6-minute walk test (6MWT) percentage predicted during treatment with alglucosidase alfa. […] The data from year 2 onward show the decline expected in ERT-experienced patients remaining on alglucosidase alfa.

ATB200/miglustat: two-component therapy: cipaglucosidase alfa (ATB200) administered in conjunction with miglustat (AT2221), a stabilizer of cipaglucosidase alfa
tissue glycogen content vs alglucosidase alfa [1]: significantly decreased the glycogen content in four different tissues (quadriceps, triceps, gastrocnemius, and heart) as compared to the same dosage of alglucosidase alfa
long-term motor function by 6MWD after switching from alglucosidase alfa [2]: progressive gains in motor function as assessed by 6MWD
long-term pulmonary function by FVC after switching from alglucosidase alfa [2]: stability in pulmonary function as assessed by FVC
